A short description of data set [1]: Photostability test of sweet enhancers with/without photostabilizers in Q-Sun Xenon Test Chamber. On the procedure: Aqueous buffer solution at pH 7.1 contains 50 mM potassium dihydrogen phosphate and ˜32 mM sodium hydroxide (solutions of 1.0 M hydrochloric acid and 1.0 M sodium hydroxide are used to adjust pH). Aqueous buffer solution at pH 4.0 contains 50 mM citric acidmonosodium salt and ˜7.4 mM sodium hydroxide (solutions of 1.0 M hydrochloric acid and 1.0 M sodium hydroxide are used to adjust pH). Aqueous buffer solution at pH 2.8 contains 50 mM citric acid and ˜16 mM sodium hydroxide (solutions of 1.0 M hydrochloric acid and 1.0 M sodium hydroxide are used to adjust pH).
The stock solutions of the test compounds at 25 mM are made by dissolving the compounds in dimethyl sulfoxide. The solutions of the stabilizers are made by dissolving the materials in the aqueous buffers. The stock solutions are then diluted to 25 μM with the stabilizer solutions to prepare the test solution and 4-mL aliquots of the solutions are transferred to 20-mL clear glass vial for testing.
Accelerated photodegradation was studied using a Q-Sun Xenon Test Chamber (Q-Lab Model No. Xe-1-SC) at an irradiance setting of 350 mW/m^2 at 340 nm and temperature of 25 degrees Celsius. To put this in perspective, 24 hours of constant Q-Sun irradiation at these settings is approximately equivalent to 12.4 days of direct sunlight in the southwestern United States. At 0, 1, 2, 4, and 6 hours from the beginning of the radiation, a 0.4-mL aliquot from each vial is pippeted out to a 1-mL glass insert for analysis.
The samples are analyzed using an Agilent 1100 LC/MSD equipped with a quaternary pump and a diode-array detector (DAD). The peak areas from the MSD chromatograms are used for quantitation, and the photostability is shown by plotting the percentages of the test compound which remains intact at all time points. The peak areas from the DAD chromatograms are used for quantitation for stabilizers with concentration at 250 uM or higher. The instrument conditions are listed below. • Column: YMC ODS AQ 3 um, 4.0×23 mm • Column Temperature: Room temperature • Auto-sampler Temperature: Room temperature • Mobile Phase A: Water • Mobile Phase B: Methanol • Mobile Phase C: 1% Formic Acid • Gradient: % C is constant at 5%; % B from 5% to 95% in 2 min, then back to 5% at 2.1 min, and then held at 5% until 3.25 min; flow rate is 2 mL/min • Injection volume: 10 uL • Data Collection time: 2.75 minutes • MSD ion source: APCI • MSD Signal settings: Positive, selected ion monitoring (SIM) at the mass of the expected molecular ions. • UV detection wavelength: 230 nm. • MSD detection start time: 0.5 min
FIGS. 2 and 3 illustrate the photostability study of Compounds A and B under these condition: Direct sunlight was modeled using a Q-Sun Xenon Test Chamber (Q-Lab Model No. Xe-1-SC) at an irradiance setting of 350 mW/m^2 @340 nm, 25° C. Test samples were irradiated in the Q-Sun at these settings in pH 2.8 buffer with/without Compounds A and B in the presence/absence of the photo-stabilizers A (chlorogenic acid) and B (rutin, a.k.a. quercetin-3-rutinoside).
Direct sunlight was modeled using a Q-Sun Xenon Test Chamber (Q-Lab Model No. Xe-1-SC) at an irradiance setting of 350 mW/m^2 @340 nm, 25° C. Test samples were irradiated in the Q-Sun at these settings in pH 2.8 buffer with Compound A in the presence/absence of the photo-stabilizers. […] Direct sunlight was modeled using a Q-Sun Xenon Test Chamber (Q-Lab Model No. Xe-1-SC) at an irradiance setting of 350 mW/m^2 @340 nm, 25° C. Test samples were irradiated in the Q-Sun at these settings in pH 2.8 buffer with 25 μM of Compound A in the presence/absence of the photo-stabilizers at a concentration of 100 ppm. […] Direct sunlight was modeled using a Q-Sun Xenon Test Chamber (Q-Lab Model No. Xe-1-SC) at an irradiance setting of 350 mW/m^2 @340 nm, 25° C. Test samples were irradiated in the Q-Sun at these settings in pH 2.8 buffer with sweet enhancer Compound E in the presence/absence of the photostabilizers.

[2] abbreviates: % of 25 μM Compound A remaining with the cinnamic acid or coumarin derivative at 100 ppm (Table 4), pH 2.8 buffer, Q-Sun 350 mW/m^2 @340 nm, 25° C.

Regarding `COc1cc(C=CC(=O)O)cc(OC)c1O` (stereo in doubt) [sinapinic acid], in data set [1] (setting [2]), the “% Remaining @ 1 hr” value stood at 100.00%, the “% Remaining @ 2 hrs” value was determined as 99.98%, the “% Remaining @ 4 hrs” value was found to be 100.12% and the “% Remaining @ 6 hrs” value is given as 98.52%.
Usually melting point stands for the temperature of the solid-liquid transition. Compound `Cc1nc2cccc(OCC(C)(C)NC(=O)CN3CCOCC3)c2c(N)c1C(=O)O` [Example 149, 4-amino-2-methyl-5-(2-methyl-2-(2-morpholinoacetamido)propoxy)quinoline-3-carboxylic Acid] showed a melting point of 173 to 175 °C.
`COc1cc(/C=C/C(=O)O)ccc1O` [ferulic acid]: the “% Remaining @ 1 hr” value in data set [1] (buffer, 1 h, 100 ppm, pH 2.8) was 95.41%. In data set [1] (buffer, 2 h, 100 ppm, pH 2.8), the “% Remaining @ 2 hrs” value came to 96.49%. The “% Remaining @ 4 hrs” value in data set [1] (buffer, 4 h, 100 ppm, pH 2.8) is reported as 93.43%. In data set [1] (buffer, 6 h, 100 ppm, pH 2.8), the “% Remaining @ 6 hrs” value is given as 93.85%.
The compound `Cc1nc2cccc(OCC(C)(C)C(=O)NC3CCC3)c2c(N)c1C(=O)O` [Example 136, 4-amino-5-(3-(cyclobutylamino)-2,2-dimethyl-3-oxopropoxy)-2-methylquinoline-3-carboxylic Acid] came in with a melting point of 183 to 187 °C.
As to `Cc1nc2cccc(O[C@H]3CC[C@H](NC(=O)C(C)C)CC3)c2c(N)c1C(=O)O` [Example 137, 4-amino-5-(((1,4)-trans-4-isobutyramidocyclohexyl)oxy)-2-methylquinoline-3-carboxylic Acid], the melting point fell in the range of 183 to 185 °C.
For `COc1ccc(CCC(=O)c2c(O)cc(O[C@@H]3O[C@H](CO)[C@@H](O)[C@H](O)[C@H]3O[C@@H]3O[C@@H](C)[C@H](O)[C@@H](O)[C@H]3O)cc2O)cc1O` [neohesperidin dihydrochalcone], the “% Remaining @ 1 hr” value in data set [1] (buffer, 1 h, 50 ppm, pH 2.8) amounted to 91.42%. Moreover, the “% Remaining @ 2 hrs” value in data set [1] (buffer, 2 h, 50 ppm, pH 2.8) came to 82.53%. Moreover, in data set [1] (buffer, 4 h, 50 ppm, pH 2.8), the “% Remaining @ 4 hrs” value is recorded as 66.95%. For the same compound, the “% Remaining @ 6 hrs” value in data set [1] (buffer, 6 h, 50 ppm, pH 2.8) is listed as 56.72%.
Consider `O=C(O)/C=C/c1ccc(O)c(O)c1` [caffeic acid], for which the “% Remaining @ 1 hr” value in data set [1] (buffer, 1 h, 100 ppm, pH 2.8) is listed as 98.02%. In addition, in data set [1] (buffer, 2 h, 100 ppm, pH 2.8), the “% Remaining @ 2 hrs” value was 99.54%. Moreover, the “% Remaining @ 4 hrs” value in data set [1] (buffer, 4 h, 100 ppm, pH 2.8) is listed as 98.74%. For the same compound, the “% Remaining @ 6 hrs” value in data set [1] (buffer, 6 h, 100 ppm, pH 2.8) turned out to be 95.55%.
The compound `Cc1nc2cccc(OC3CCN(C(=O)C(C)C)CC3)c2c(N)c1C(=O)O` [Example 143, 4-amino-5-((1-isobutyrylpiperidin-4-yl)oxy)-2-methylquinoline-3-carboxylic Acid] came in with a melting point of 184 to 186 °C.
With `Cc1nc2cccc(OCC(C)(C)NC(=O)c3ccncc3)c2c(N)c1C(=O)O` [Example 24, 4-amino-5-(2-(isonicotinamido)-2-methylpropoxy)-2-methylquinoline-3-carboxylic Acid], the melting point is 195 to 198 °C.
For the compound `COc1cc([C@@H]2CC(=O)c3c(O)cc(O)cc3O2)ccc1O` [homoeriodictol, homoeriodictyol], in data set [1] (buffer, 1 h, 12.5 ppm, pH 2.8), the “% Remaining @ 1 hr” value came to 90.83%. Also, the “% Remaining @ 2 hrs” value in data set [1] (buffer, 2 h, 12.5 ppm, pH 2.8) was 82.75%. Also, the “% Remaining @ 4 hrs” value in data set [1] (buffer, 4 h, 12.5 ppm, pH 2.8) is reported as 57.70%. Also, the “% Remaining @ 6 hrs” value in data set [1] (buffer, 6 h, 12.5 ppm, pH 2.8) is recorded as 24.54%.
On to `Cc1nc2cccc(OC3CCCCC3)c2c(N)c1C(=O)O` [Example 36, 4-amino-5-(cyclohexyloxy)-2-methylquinoline-3-carboxylic Acid], for which the melting point lay in the range of 220 to 221.5 °C.
Turning to `CNC(=O)[C@H]1CC[C@H](Oc2cccc3nc(C)c(C(=O)O)c(N)c23)CC1` [Example 154, 4-amino-2-methyl-5-(((1,4)-trans-4-(methylcarbamoyl)cyclohexyl)oxy)quinoline-3-carboxylic Acid], the melting point was 195 to 198 °C.
Same read-out and setting: the result for `CC(C)(COc1cccc2c1C(N)=NS(=O)(=O)N2)NC(=O)c1ccccc1` [Example 198, N-(1-(4-amino-2,2-dioxide-1H-benzo[c][1,2,6]thiadiazin-5-yloxy)-2′-methylpropan-2′-yl)benzamide] reads 235 to 236 °C; that for `CCCCNC(=O)C(C)(C)COc1cccc2nc(C)c(C(=O)O)c(N)c12` [Example 147, 4-amino-5-(3-(butylamino)-2,2-dimethyl-3-oxopropoxy)-2-methylquinoline-3-carboxylic Acid], 195 to 199 °C.
The compound `CCCOc1cccc2c1C(N)=NS(=O)(=O)N2` [Example 158, 4-Amino-5-(propyloxy)-1H-benzo[c][1,2,6]thiadiazine-2,2-dioxide] had a melting point of 229 to 230 °C.
The compound `CCNC(=O)C(C)(C)COc1cccc2nc(C)c(C(=O)O)c(N)c12` [Example 144, 4-amino-5-(3-(ethylamino)-2,2-dimethyl-3-oxopropoxy)-2-methylquinoline-3-carboxylic Acid] had a melting point of 168 to 170 °C.
On the same count and under the same terms, then `Cc1nc2cccc(OCC(C)(C)C(=O)NCC(C)C)c2c(N)c1C(=O)O` [Example 150, 4-amino-5-(3-(isobutylamino)-2,2-dimethyl-3-oxopropoxy)-2-methylquinoline-3-carboxylic Acid], with 176 to 179 °C; and `Cc1nc2cccc(OCC(C)(C)C(=O)NCC3CCC3)c2c(N)c1C(=O)O` [Example 151, 4-amino-5-(3-((cyclobutylmethyl)amino)-2,2-dimethyl-3-oxopropoxy)-2-methylquinoline-3-carboxylic Acid], with 170 to 172 °C.
`O=c1ccc2ccc(O)c(O)c2o1` [daphnetin]: the “% Remaining @ 1 hr” value in data set [1] (buffer, 1 h, 100 ppm, pH 2.8) is 99.13%. For the same compound, the “% Remaining @ 2 hrs” value in data set [1] (buffer, 2 h, 100 ppm, pH 2.8) is reported as 99.76%. Besides, the “% Remaining @ 4 hrs” value in data set [1] (buffer, 4 h, 100 ppm, pH 2.8) is 98.13%.
The compound `Cc1nc2cccc(OCC(C)(C)C(=O)NC3CC3)c2c(N)c1C(=O)O` [Example 135, 4-amino-5-(3-(cyclopropylamino)-2,2-dimethyl-3-oxopropoxy)-2-methyl-quinoline-3-carboxylic Acid] registered a melting point of 227 to 229 °C.
`CCC(CC)COc1cccc2nc(C)c(C(=O)O)c(N)c12` [Example 22, 4-amino-5-(2-ethylbutoxy)-2-methylquinoline-3-carboxylic Acid] yielded a melting point of 145 to 151 °C.
Turning to `COc1ccc2ncc(C(=O)O)c(N)c2c1` [Compound B], the “% of compound degraded after 6 hr of irradiation” value in data set [1] (pH 2.8) is “about 80%”.
`O=C(CCc1ccc(O)cc1)c1c(O)cc(O)cc1O` [phloretin]: the “% Remaining @ 1 hr” value in data set [1] (buffer, 1 h, 25 ppm, pH 2.8) was 89.62%. For the same compound, the “% Remaining @ 2 hrs” value in data set [1] (buffer, 2 h, 25 ppm, pH 2.8) stood at 80.75%. The “% Remaining @ 4 hrs” value in data set [1] (buffer, 4 h, 25 ppm, pH 2.8) is 64.60%. Moreover, the “% Remaining @ 6 hrs” value in data set [1] (buffer, 6 h, 25 ppm, pH 2.8) turned out to be 50.64%.
In the case of `C[C@@H]1O[C@@H](O[C@H]2[C@H](Oc3cc(O)c4c(c3)O[C@H](c3ccc(O)cc3)CC4=O)O[C@H](CO)[C@@H](O)[C@@H]2O)[C@H](O)[C@H](O)[C@H]1O` [naringin], the “% Remaining @ 1 hr” value in data set [1] (buffer, 1 h, 50 ppm, pH 2.8) was determined as 90.42%. Moreover, the “% Remaining @ 2 hrs” value in data set [1] (buffer, 2 h, 50 ppm, pH 2.8) was 75.92%. Also, the “% Remaining @ 4 hrs” value in data set [1] (buffer, 4 h, 50 ppm, pH 2.8) is 55.54%. The “% Remaining @ 6 hrs” value in data set [1] (buffer, 6 h, 50 ppm, pH 2.8) turned out to be 41.50%.
Consider `COc1cc2ccc(=O)oc2cc1O` [scopoletin], for which the “% Remaining @ 4 hrs” value in data set [1] (buffer, 4 h, 100 ppm, pH 2.8) was 100.07%. For the same compound, the “% Remaining @ 6 hrs” value in data set [1] (buffer, 6 h, 100 ppm, pH 2.8) came out at 95.72%.

(Values after US10244779B2, “Method of improving stability of sweet enhancer and composition containing stabilized sweet enhancer” (SENOMYX, INC., priority 2010, dated 2019).)
